Test [1] deals with T1, human recombinant adrenergic α2A receptor (Homo sapiens, UniProt P08913).
T1 construct: expressed in transfected cells; host or cells: insect Sf9 cells
T1 sequence (P08913 1-465): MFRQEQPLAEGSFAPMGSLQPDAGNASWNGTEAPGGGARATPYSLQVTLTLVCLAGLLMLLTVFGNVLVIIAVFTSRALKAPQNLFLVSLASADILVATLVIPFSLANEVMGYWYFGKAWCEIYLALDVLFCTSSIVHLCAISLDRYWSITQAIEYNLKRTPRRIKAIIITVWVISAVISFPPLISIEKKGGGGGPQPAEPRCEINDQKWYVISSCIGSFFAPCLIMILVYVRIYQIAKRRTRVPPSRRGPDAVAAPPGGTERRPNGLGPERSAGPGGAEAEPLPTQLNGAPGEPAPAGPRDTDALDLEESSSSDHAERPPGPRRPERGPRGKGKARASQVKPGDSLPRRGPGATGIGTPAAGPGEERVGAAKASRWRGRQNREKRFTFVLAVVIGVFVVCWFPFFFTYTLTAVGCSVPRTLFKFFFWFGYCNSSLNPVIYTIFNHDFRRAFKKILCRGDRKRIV
The test can be described thus: Adrenergic α2A radioligand binding ([3H]MK-912). Particulars: compound at 1 μM; insect Sf9 cells; read-out: Adrenergic (1 μM) α2A, percent inhibition of specific binding. On the procedure:
To evaluate in radioligand binding assays the activity of compounds of the invention, human recombinant adrenergic α2A receptor expressed in insect Sf9 cells (Uhlen S et al. J Pharmacol Exp Ther. 271:1558, 1994) in a modified Tris-HCl buffer (50 mM Tris-HCl, pH 7.4, 12.5 mM MgCl2, 2 mM EDTA) was used. Compounds of invention were incubated with 1 nM [^3H]MK-912 for 60 minutes at 25° C. MK912 is (2S-trans)-1,3,4,5′,6,6′,7,12b-octahydro-1′,3′-dimethyl-spiro[2H-benzofuro[2,3-a]quinolizine-2,4′(1′H)-pyrimidin]-2′(3′H)-one hydrochloride Non-specific binding was estimated in the presence of 10 μM WB-4101 (2-(2,6-Dimethoxyphenoxyethyl)aminomethyl-1,4-benzodioxane hydrochloride). Receptor proteins were filtered and washed, the filters were then counted to determine [^3H]MK-912 specifically bound. Compounds were screened at 1 μM or lower, using 1% DMSO as vehicle. Biochemical assay results are presented as the percent inhibition of specific binding in Table 6.

Test [2] has as its system rat central imidazoline I2 receptor. Kind of test: Central imidazoline I2 radioligand binding ([3H]Idazoxan). Particulars: compound at 1 μM; Wistar Rat cerebral cortex. On the procedure:
To evaluate in radioligand binding assays the activity of compounds of the invention, rat central imidazoline I2 receptor obtained from Wistar Rat cerebral cortex (Brown, C. M. et al., Br. J. Pharmacol. 99:803, 1990) in a modified Tris-HCl buffer (50 mM Tris-HCl buffer, pH 7.4, 0.5 mM EDTA) was used. Compounds of the invention were incubated with 2 nM [^3H]Idazoxan for 30 minutes at 25° C. Non-specific binding was estimated in the presence of 1 μM Idazoxan. Receptor proteins were filtered and washed, the filters were then counted to determine [^3H]Idazoxan specifically bound. Compounds were screened at 1 μM or lower, using 1% DMSO as vehicle. Compounds of the invention were tested in this biochemical assay and percent inhibition of specific binding was determined. Biochemical assay results are presented as the percent inhibition of specific binding in Table 5.

A word on the inhibition: it is the relative decrease from the control value, in per cent. `CCOC(=O)CCn1c2c(c3cc(Cl)ccc31)CN(C)CC2` [CD17, ethyl 3-(8-chloro-1,2,3,4-tetrahydro-2-methylpyrido[4,3-b]indol-5-yl)propanoate]: in test [1], the inhibition at 1 µM came to 87%. In addition, in test [2], the “Imidazoline I2 Central (1 μM), percent inhibition of specific binding” value amounted to 62%.

As for `CN1CCc2c(c3cc(Cl)ccc3n2CC(=O)O)C1` [CD46, 2-(8-chloro-1,2,3,4-tetrahydro-2-methylpyrido[4,3-b]indol-5-yl)acetic acid], in test [1], the inhibition at 1 µM came to 13%. The “Imidazoline I2 Central (1 μM), percent inhibition of specific binding” value in test [2] is 28%.

For `Cc1ccc2c(c1)c1c(n2CCC(=O)O)CCN(C)C1` [CD47, 3-(1,2,3,4-tetrahydro-2,8-dimethylpyrido[4,3-b]indol-5-yl)propanoic acid], the inhibition at 1 µM in test [1] worked out at 17%. For the same compound, the “Imidazoline I2 Central (1 μM), percent inhibition of specific binding” value in test [2] is listed as 3%.

For `CN1CCc2c(c3cc(Cl)ccc3n2CCC(=O)O)C1` [CD55, 3-(8-chloro-1,2,3,4-tetrahydro-2-methylpyrido[4,3-b]indol-5-yl)propanoic acid], the inhibition at 1 µM in test [1] is -2%. For the same compound, the “Imidazoline I2 Central (1 μM), percent inhibition of specific binding” value in test [2] came to 3%.

For `Cc1ccc2c(c1)c1c(n2CC(=O)O)CCN(C)C1` [CD58, 2-(1,2,3,4-tetrahydro-2,8-dimethylpyrido[4,3-b]indol-5-yl)acetic acid], the inhibition at 1 µM in test [1] was -7%. In test [2], the “Imidazoline I2 Central (1 μM), percent inhibition of specific binding” value was 3%.

For `Cc1ccc2c(c1)c1c(n2CCN)CCN(C)C1` [CD62, 2-(1,2,3,4-tetrahydro-2,8-dimethylpyrido[4,3-b]indol-5-yl)ethanamine], in test [1], the inhibition at 1 µM stood at 42%. In test [2], the “Imidazoline I2 Central (1 μM), percent inhibition of specific binding” value is 13%.

`CCOC(=O)Cn1c2c(c3cc(Cl)ccc31)CN(C)CC2` [Compound 10, ethyl 2-(8-chloro-1,2,3,4-tetrahydro-2-methylpyrido[4,3-b]indol-5-yl)acetate]: in test [1], the inhibition at 1 µM came to 40%. Moreover, the “Imidazoline I2 Central (1 μM), percent inhibition of specific binding” value in test [2] turned out to be 25%.

With `CC(C)OC(=O)Cn1c2c(c3cc(Cl)ccc31)CN(C)CC2` [Compound 11, isopropyl 2-(8-chloro-1,2,3,4-tetrahydro-2-methylpyrido[4,3-b]indol-5-yl)acetate], the inhibition at 1 µM in test [1] worked out at 25%. In addition, the “Imidazoline I2 Central (1 μM), percent inhibition of specific binding” value in test [2] came out at 5%.

For `CN1CCc2c(c3cc(Cl)ccc3n2CC(=O)OCc2ccccc2)C1` [Compound 13, benzyl 2-(8-chloro-1,2,3,4-tetrahydro-2-methylpyrido[4,3-b]indol-5-yl)acetate], in test [1], the inhibition at 1 µM worked out at 73%. Moreover, the “Imidazoline I2 Central (1 μM), percent inhibition of specific binding” value in test [2] amounted to 16%.

For the compound `CN1CCc2c(c3cc(Cl)ccc3n2CC(=O)OC2CCCC2)C1` [Compound 15], the inhibition at 1 µM in test [1] worked out at 67%. For the same compound, in test [2], the “Imidazoline I2 Central (1 μM), percent inhibition of specific binding” value stood at 23%.

Take `CCNC(=O)Cn1c2c(c3cc(C)ccc31)CN(C)CC2` [Compound 22, N-ethyl-2-(1,2,3,4-tetrahydro-2,8-dimethylpyrido[4,3-b]indol-5-yl)acetamide]: the inhibition at 1 µM in test [1] is 40%. Further, the “Imidazoline I2 Central (1 μM), percent inhibition of specific binding” value in test [2] amounted to 51%.

Consider `Cc1ccc2c(c1)c1c(n2CC(=O)NC(C)C)CCN(C)C1` [Compound 23, 2-(1,2,3,4-tetrahydro-2,8-dimethylpyrido[4,3-b]indol-5-yl)-N-isopropylacetamide], for which the inhibition at 1 µM in test [1] turned out to be 12%. The “Imidazoline I2 Central (1 μM), percent inhibition of specific binding” value in test [2] stood at 1%.

For `Cc1ccc2c(c1)c1c(n2CC(=O)NCc2ccccc2)CCN(C)C1` [Compound 25, N-benzyl-2-(1,2,3,4-tetrahydro-2,8-dimethylpyrido[4,3-b]indol-5-yl)acetamide], the inhibition at 1 µM in test [1] was determined as 2%. In addition, the “Imidazoline I2 Central (1 μM), percent inhibition of specific binding” value in test [2] came to 18%.

In the case of `CN1CCc2c(c3cc(Cl)ccc3n2CC(=O)NC2CCCC2)C1` [Compound 27, 2-(8-chloro-1,2,3,4-tetrahydro-2-methylpyrido[4,3-b]indol-5-yl)-N-cyclopentylacetamide], in test [1], the inhibition at 1 µM amounted to 12%. For the same compound, the “Imidazoline I2 Central (1 μM), percent inhibition of specific binding” value in test [2] was determined as 8%.

Turning to `Cc1ccc2c(c1)c1c(n2CCC(=O)NCC2CCCCC2)CCN(C)C1` [Compound 30, N-(cyclohexylmethyl)-3-(1,2,3,4-tetrahydro-2,8-dimethylpyrido[4,3-b]indol-5-yl)propanamide], the inhibition at 1 µM in test [1] amounted to 74%. Further, the “Imidazoline I2 Central (1 μM), percent inhibition of specific binding” value in test [2] came out at 61%.

`CN1CCc2c(c3cc(Cl)ccc3n2CCC(=O)NC2CCCC2)C1` [Compound 31, 3-(8-chloro-1,2,3,4-tetrahydro-2-methylpyrido[4,3-b]indol-5-yl)-N-cyclopentylpropanamide]: the inhibition at 1 µM in test [1] is 37%. In test [2], the “Imidazoline I2 Central (1 μM), percent inhibition of specific binding” value is given as 33%.

For `CN1CCc2c(c3cc(Cl)ccc3n2CC(N)=O)C1` [Compound 45, 2-(8-chloro-1,2,3,4-tetrahydro-2-methylpyrido[4,3-b]indol-5-yl)acetamide], the inhibition at 1 µM in test [1] is 16%. Besides, in test [2], the “Imidazoline I2 Central (1 μM), percent inhibition of specific binding” value is on record as 24%.

As to `Cc1ccc2c(c1)c1c(n2CCC(=O)Nc2ccc(F)cc2)CCN(C)C1` [Compound 47, N-(4-fluorophenyl)-3-(1,2,3,4-tetrahydro-2,8-dimethylpyrido[4,3-b]indol-5-yl)propanamide], the inhibition at 1 µM in test [1] worked out at 73%. In addition, the “Imidazoline I2 Central (1 μM), percent inhibition of specific binding” value in test [2] turned out to be 47%.

For the compound `CN1CCc2c(c3cc(Cl)ccc3n2CC(=O)N(C)C)C1` [Compound 48, 2-(8-chloro-1,2,3,4-tetrahydro-2-methylpyrido[4,3-b]indol-5-yl)-N,N-dimethylacetamide], the inhibition at 1 µM in test [1] was 20%. In test [2], the “Imidazoline I2 Central (1 μM), percent inhibition of specific binding” value was 18%.

As to `CN1CCc2c(c3cc(Cl)ccc3n2CCC(=O)N(C)C)C1` [Compound 49, 3-(8-chloro-1,2,3,4-tetrahydro-2-methylpyrido[4,3-b]indol-5-yl)-N,N-dimethylpropanamide], in test [1], the inhibition at 1 µM was 83%. Also, in test [2], the “Imidazoline I2 Central (1 μM), percent inhibition of specific binding” value stood at 58%.

Regarding `Cc1ccc2c(c1)c1c(n2CCNC(=O)c2ccncc2)CCN(C)C1` [Compound 50, N-(2-(1,2,3,4-tetrahydro-2,8-dimethylpyrido[4,3-b]indol-5-yl)ethyl)isonicotinamide], the inhibition at 1 µM in test [1] turned out to be 38%. Also, the “Imidazoline I2 Central (1 μM), percent inhibition of specific binding” value in test [2] is 24%.

As for `Cc1ccc2c(c1)c1c(n2CC(=O)Nc2ccc(F)cc2)CCN(C)C1` [Compound 51, N-(4-fluorophenyl)-2-(1,2,3,4-tetrahydro-2,8-dimethylpyrido[4,3-b]indol-5-yl)acetamide], in test [1], the inhibition at 1 µM turned out to be 22%. In addition, the “Imidazoline I2 Central (1 μM), percent inhibition of specific binding” value in test [2] turned out to be 12%.

On to `CCCCOC(=O)Cn1c2c(c3cc(Cl)ccc31)CN(C)CC2` [Compound 52, butyl 2-(8-chloro-1,2,3,4-tetrahydro-2-methylpyrido[4,3-b]indol-5-yl)acetate], for which the inhibition at 1 µM in test [1] amounted to 38%. The “Imidazoline I2 Central (1 μM), percent inhibition of specific binding” value in test [2] is reported as 14%.

Turning to `Cc1ccc2c(c1)c1c(n2CCC(=O)NCc2ccccc2)CCN(C)C1` [Compound 59, N-benzyl-3-(1,2,3,4-tetrahydro-2,8-dimethylpyrido[4,3-b]indol-5-yl)propanamide], the inhibition at 1 µM in test [1] is 45%. Further, the “Imidazoline I2 Central (1 μM), percent inhibition of specific binding” value in test [2] is 64%.

Take `CN1CCc2c(c3cc(Cl)ccc3n2CC(=O)NC2CCCCC2)C1` [Compound 60, 2-(8-chloro-1,2,3,4-tetrahydro-2-methylpyrido[4,3-b]indol-5-yl)-N-cyclohexylacetamide]: the inhibition at 1 µM in test [1] was 23%. Also, in test [2], the “Imidazoline I2 Central (1 μM), percent inhibition of specific binding” value turned out to be 6%.

Consider `Cc1ccc2c(c1)c1c(n2CCNC(=O)C(C)C)CCN(C)C1` [Compound 61, N-(2-(1,2,3,4-tetrahydro-2,8-dimethylpyrido[4,3-b]indol-5-yl)ethyl)isobutyramide], for which the inhibition at 1 µM in test [1] worked out at 46%. In addition, the “Imidazoline I2 Central (1 μM), percent inhibition of specific binding” value in test [2] is on record as 40%.

The record behind these values is patent US9115137B2, “2,3,4,5-tetrahydro-1H-pyrido[4,3-B]indole compounds and methods of use thereof” (priority 2008, dated 2015).
